Experimental data from PubChem BioAssay AID179 (DTP/NCI, 2004).
Activity calls are given as the source filed them.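 Rule for the calls: active = compounds giving half or more protection of infected cells from virus-caused growth loss, again on retest; inactive = the rest.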

Tested on: CEM cells HIV-1 protection, formazan growth assay
Assay: NCI AIDS Antiviral Assay
Details: for IC50: measured here: growth of uninfected CEM cells
Procedure, shortened: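 CEM (human) cells, HIV-1 infected vs uninfected, 5-point dosing, formazan growth read-out. Retest threshold 50% protection.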

| Structure (SMILES) | EC50 [µM] | IC50 [µM] | outcome |
| --- | --- | --- | --- |
| Cc1cc(=O)n2nc(CSc3nnc(Sc4cc(O)ccc4O)s3)sc2n1 | > 200 | 28.8 | – |
| CC(=O)/C(=C/c1ccc([N+](=O)[O-])cc1)C(=O)c1ccccc1 | > 87.1 | 16.6 | – |
| Cn1c2ccccc2c(=NNc2ccc(S(=O)(=O)N=C(N)N)cc2)c2ccccc21 | > 200 | 5.5 | – |
| COc1ccc(CC(CC(=O)O)NC(C)=O)cc1 (stereo unspecified) | > 1000 | > 1000 | – |
| Nc1nn2c(C(Br)Br)cc(C(Br)Br)nc2c1[N+](=O)[O-] | > 200 | 0.525 | – |
| CC1=C(S(=O)c2ccc(C)cc2)CCC2(CCCCO2)O1 (stereo unspecified) | > 200 | 107 | – |
| Cc1c(N)c(=O)oc2cc3occc(=O)c3cc12 | > 20.4 | 13.5 | – |
| c1cnc2c(c1)-n1cccc1C1(CCSC1)NN2 (stereo unspecified) | > 138 | > 138 | – |
| O=C(c1ccccc1)C1C(c2ccccc2)N1S(=O)(=O)c1ccccc1 (stereo unspecified) | > 20 | 3.02 | – |
| Nc1nc(Cl)c2ncn(C3CC=C(CO)CC3)c2n1 (stereo unspecified) | > 891 | 51.3 | – |
| CCC1Oc2c(CC=C(C)C)c(OC(C)=O)c(C(OC(C)=O)C(C)CC)c3oc(=O)cc1c23 (stereo unspecified) | > 200 | 95.5 | – |
| NCC(O)c1ccc(Nc2ccnc3cc(Cl)ccc23)cc1 (stereo unspecified) | > 93.3 | 38 | – |
| O=C1Cc2cc3ccccc3nc2-c2ccccc2N1 | > 200 | > 200 | – |
| COc1ccc(C2=NC(CO)[C@H](c3ccccc3)O2)cc1OC (stereo partly specified) | > 219 | > 219 | – |
| O=C1/C=C(/c2ccc(O)cc2)[C@@H](O)Cc2ccc(O)cc2O1 | > 200 | > 200 | – |
| Cc1nc2c(c(=O)[nH]1)S/C(=C(/C#N)c1nc3ccccc3[nH]1)N2c1ccccc1 | > 3.63 | > 3.63 | – |
| COc1ccccc1/C=C1\C=Cc2ccccc21 | > 204 | 31.6 | – |
| O=C1C(Cl)=C(N2CCN(C3=C(Cl)C(=O)c4ccccc4C3=O)CC2)C(=O)c2ccccc21 | > 7.76 | 1.32 | – |
| O=C(O)c1cc2c3c(c1)[C@H]1C=CC[C@H]1CN3CC1CC=CC21 (stereo partly specified) | – | – | inactive |
| O=C1CCCc2c(O)ccc(O)c21 | > 380 | 60.3 | – |
| Cc1cc(C)cc(/C(C#N)=C/c2ccc(N(C)C)cc2)c1 | > 2 | 0.102 | – |

| Structure (SMILES) | EC50 [µM] | IC50 [µM] | outcome |
| --- | --- | --- | --- |
| O=[N+]([O-])c1ccc(Nc2nnc(-c3ccc(Cl)cc3Cl)s2)cc1 | – | – | inactive |
| O=C(O)c1ccccc1-c1c2cc([N+](=O)[O-])c(=O)c(Br)c-2oc2c(Br)c(O)c([N+](=O)[O-])cc12 | > 316 | 8.13 | – |
| CC(C)=CC1c2[nH]c3ccccc3c2CC(C(=O)O)N1C(=O)OC(C)(C)C(Cl)(Cl)Cl (stereo unspecified) | – | – | inactive |
| CCOC(=O)NN(C(=O)OCC)C(=C(C1CCCCC1)N1CCOCC1)N(NC(=O)OCC)C(=O)OCC | 126 | 170 | – |
| CCCCCC(=O)Cc1cc(O)cc2c1C(=O)Oc1cc(O)c(C(=O)O)c(CCCCC)c1O2 | > 200 | 33.9 | – |
| CCOC(=O)C(/C=N\C(=S)Nc1ccc(Cl)c(Cl)c1)=C(/O)c1ccccc1 | > 200 | 24 | – |
| CNC(SC)=C1C(=O)OC(C)(C)OC1=O | > 1070 | 457 | – |
| COC1/C=C/OC2(C)Oc3c(C)c(O)c4c(O)c(c(/C=N/NC5CCCCCCCCCCCCCC5)c(O)c4c3C2=O)NC(=O)/C(C)=C\C=C\C(C)C(O)C(C)C(O)C(C)C(OC(C)=O)C1C (stereo unspecified) | > 200 | 10.5 | – |
| COc1cc(/C=C/C(=O)c2sc(NNC(C)=O)nc2C)ccc1O | > 20.9 | > 20.9 | – |
| O=[N+]([O-])c1ccc(N=P(c2ccccc2)(c2ccccc2)c2ccccc2)n2nnnc12 | – | – | inactive |
| CN1CCN(C(=S)N2CCN(C)CC2)CC1 | > 2 | 1.91 | – |
| O=c1[nH]c(=S)nc2nc3c4ccc[nH]c4c4ccccc4c3nc12 | > 200 | 58.9 | – |
| CN1CC2CC3=C(CCC45CC6C(C=C34)C63CCC4(CC67CCC8C9(C)CCCC8%10C(C6CC4CC7%10)N(C)C9)OC53)C(C)(C2)C1 (stereo unspecified) | – | – | inactive |
| O=C(O)C1CCN1Cc1ccc2ccccc2c1O (stereo unspecified) | > 200 | 195 | – |
| O=c1cc(NCC2CCCCC2)[nH]c(=O)[nH]1 | > 200 | > 200 | – |
| CC(C)(c1ccccc1)c1ccc(Oc2ccc3c(c2)-c2nc-3nc3[nH]c(nc4nc(nc5[nH]c(n2)c2ccc(Oc6ccc(C(C)(C)c7ccccc7)cc6)cc52)-c2cc(Oc5ccc(C(C)(C)c6ccccc6)cc5)ccc2-4)c2ccc(Oc4ccc(C(C)(C)c5ccccc5)cc4)cc32)cc1 | > 2.63 | > 2.63 | – |
| O/N=C/c1ccc(O)c(O)c1 | > 1620 | 87.1 | – |
| CCO/C(CCn1[nH]c(=O)c(Cl)c(Cl)c1=O)=N\NC(=O)C(=O)NN | > 7.08 | > 7.08 | – |
| O=c1[nH]ncc2c1Sc1cn[nH]c(=O)c1S2 | > 10.7 | > 10.7 | – |
| O=C(CCCN1CCC(C(O)c2ccc(F)cc2)CC1)c1ccc(F)cc1 (stereo unspecified) | > 95.5 | 79.4 | – |
| C/C(=N/NC(=S)Nc1ccccc1C)c1ccccn1 | > 0.2 | 0.0692 | – |

| Structure (SMILES) | EC50 [µM] | IC50 [µM] | outcome |
| --- | --- | --- | --- |
| Cc1ccccc1Nc1nc(-c2ccccc2)nc(N)c1N=O | > 200 | 21.9 | – |
| CCOC(=O)c1ccc(/C(C#N)=C/c2ccc(Cl)cc2)cc1 | > 200 | > 200 | – |
| CC(=O)/C(=C/c1cccc(F)c1)c1ccccc1 | > 56.2 | > 56.2 | – |
| CC(=O)n1nnc2ccc([N+](=O)[O-])cc21 | > 34.7 | > 34.7 | – |
| O=S1(=O)Cc2ccc3c4c2-c2c(ccc5ccc(c-4c25)CS(=O)(=O)C3)C1 | > 200 | 17 | – |
| Cc1cccc(C)c1NC(=O)CCC/C(CC(=O)c1ccc(F)cc1)=N\NC(=O)C(=O)NN | > 148 | > 148 | – |
| COc1ccc(C2CC(=O)c3ccccc3O2)cc1 (stereo unspecified) | > 200 | 97.7 | – |
| COC(=O)/N=[N+](\[O-])C(c1ccc(Cl)cc1)c1ccc(Cl)cc1 | > 200 | 64.6 | – |
| O=C(Nc1cc(Cl)c(Cl)cc1Cl)C(=O)C(C(=O)c1ccccc1)C1OC(=O)c2ccccc21 (stereo unspecified) | – | – | inactive |
| COc1ccc2nc3cc([N+](=O)[O-])ccc3c(NCCCN(C)C)c2c1 | > 2 | 0.38 | – |
| Cc1cc(=O)[nH]c(NNC(C#N)c2ccc([N+](=O)[O-])cc2)n1 (stereo unspecified) | > 63.1 | > 63.1 | – |
| CC(=O)C1=C(O)C2C3c4c[nH]c5cccc(c45)CC3C(C)(C)N2C1=O (stereo unspecified) | – | – | inactive |
| CC(C)(CN1CCCCC1)C(/C=C/c1ccc(Cl)c(Cl)c1)=N\NC(=O)N/N=C(/C=C/c1ccc(Cl)c(Cl)c1)C(C)(C)CN1CCCCC1 | > 200 | 2.24 | – |
| Nc1cccc2nnccc12 | > 200 | > 200 | – |
| CCOC(=O)c1cn(C)c(=S)n2c1nc1ccccc12 | > 200 | > 200 | – |
| C[C@]12C=CC(=O)C=C1CC[C@@H]1[C@@H]2CC[C@]2(C)OC(=O)CC[C@@H]12 | > 832 | 224 | – |
| Nc1c(O)c(C(=O)O)cc2ccccc12 | > 200 | 17.8 | – |
| O=C(O)CN(CCN(CC(=O)O)CC(=O)O)CC(=O)O | > 200 | > 200 | – |
| O=C1OC(Sc2ccccc2)(Sc2ccccc2)c2cccc3cccc1c23 | – | – | inactive |
| CCOC(=O)/C=C\SCC(N)C(=O)O (stereo unspecified) | > 575 | 309 | – |
